Values joined by “and” are separate entries in the source; they are usually repeats but may differ in a detail not shown here. Equal values may be shown once. Read-outs that look alike come from different tables or passages of the source. One block for each molecule: values may come before it. Square brackets hold non-standard residues; d marks the D form. Peptide text beside a SMILES is read from it. * marks the point of attachment. 6FAM = O=C1OC2(c3ccc(O)cc3Oc3cc(O)ccc32)c2cc(C(=O)*)ccc21; Abu = CC[C@H](N)C(=O)O; NHPr = CCCN*
Tests used:
[1] = target: T1, human XIAP-BIR3 protein (residues 241-356) (Homo sapiens, UniProt P98170); assay: biochemical
Target sequence in this assay (P98170 241-356): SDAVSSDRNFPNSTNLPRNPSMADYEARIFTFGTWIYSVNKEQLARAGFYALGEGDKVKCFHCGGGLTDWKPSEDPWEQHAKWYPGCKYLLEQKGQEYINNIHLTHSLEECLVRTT

[2] = test system: MDA-231 breast cancer cell line; assay: MTT cell viability assay in MDA-231 cells; assay type: cell-based; settings: Homo sapiens, MDA-MB-231, 120 h, read-out: EC50 growth inhibition
Description: (§1) . The cells were then incubated at 37 C with 5% CO2 for 5 days, followed by detection of cell viability with the MTT assay. Untreated cells were used as 100% growth. […].

PC-3 cells [3] = assay: MTT cell viability assay in PC-3 cells; assay type: cell-based; settings: Homo sapiens
Description: as §1

PC-3 cells [4] = assay: Apoptosis by Annexin V-FITC staining in PC-3 cells, alone or with CDDP; assay type: cell-based, human
Description: […]. […] […]. The experiment used PC-3 cells which express high levels of XIAP and cIAP-1/2 proteins and cisplatin (CDDP) as the chemotherapeutic drug. CDDP is a DNA damaging agent and can effectively induce apoptosis in PC-3 cells and is also a clinically used chemotherapeutic drug for prostate cancer.
PC-3 cells were treated with CDDP, Smac peptides and peptidomimetics alone or in combination for 42 hours and apoptosis was analyzed by Annexin V-FITC staining. […] Combination of 25 μM CDDP and 10 μM or 25 μM SH-97 induced 29.3%±1.9% and 35.8%±0.4% apoptosis over control cells, respectively (FIG. 6A). […].
In a similar experiment, PC-3 cells were treated with the Smac peptidomimetic CJ-445 (Table 3) and CDDP as described above. Combination of 25 μM CDDP and 5 μM or 10 μM CJ-445 induced about 30% and about 35% apoptosis over control cells, respectively (FIG. 7).

[5] = target: human XIAP-BIR3 protein (residues 241-356) with a His tag (human) (UniProt P98170); assay: competitive fluorescence polarization, SM5F tracer; against S9 as reference
[6] = target: human XIAP-BIR3 protein (residues 241-356) with a His tag (human) (UniProt P98170); assay: fluorescence polarization, saturation; against S9F as reference
[7] = target: human XIAP-BIR3 protein (residues 241-356) with a His tag (human) (UniProt P98170); assay: fluorescence polarization; 5 nM SM5F and 0.030 µM XIAP-BIR3
[8] = target: human XIAP-BIR3 protein (residues 241-356) with a His tag (human) (UniProt P98170); assay: fluorescence polarization, saturation; 5 nM peptide titrated with 0 to 40 µM protein
[9] = test system: MDA-231 breast cancer cells; assay: Apoptosis by Annexin V-FITC/propidium iodide flow cytometry in MDA-231 cells, alone or with CDDP; assay type: cell-based, human; settings: 42 hours
Description: Another experiment was carried out in which MDA-231 breast cancer cells in 6-well plates were treated with SH-97 and CDDP, alone or in combination, for 42 hours. Cells were collected and stained with Annexin V-FITC and propidium iodide. The fluorescence of individual cells was analyzed by flow cytometry. 25 and 50 μM CDDP induced about 30% and about 45%, respectively, of cancer cells to undergo apoptosis as compared to control cells (FIG. 8). Combination of 25 or 50 μM CDDP and 10 μM SH-97 induced about 50% and 90% apoptosis over control cells, respectively (FIG. 8). […] (FIG. 8).

[10] = target: T1, human XIAP-BIR3 protein (residues 241-356); assay: Fluorescence polarization saturation (direct) binding of labeled Smac peptides; settings: 5 nM labeled peptide, protein 0 to 40 μM, read-out: Kd value (dissociation constant) to XIAP-BIR3
PC-3 cells [11] = assay: Clonogenic assay with X-ray radiation in PC-3 cells
[12] = PC-3, MTT, read-out: EC50 growth inhibition
[13] = 10 μM compound + 25 μM CDDP, 42 hours

human XIAP-BIR3 protein (residues 241-356) with a His tag (human), sequence (P98170 241-356 limits assumed): as the sequence (P98170 241-356) above

Molecule: C[C@H](N)C(=O)N[C@H](C(=O)N1CCC[C@H]1C(=O)NC(c1ccccc1)c1ccccc1)c1ccccc1 [CJ-450]
Ki [1]: 10.4 µM
EC50 ([2]; 5 days, MTT): 120 to 130 µM
EC50 (PC-3 cells [3]; [12]): 120 to 130 µM

Molecule: CC(C)[C@H](NC(=O)[C@H](C)N)C(=O)N1CCCC[C@H]1C(=O)NC(c1ccccc1)c1ccccc1 [CJ-458]
Ki [1]: 160 µM

Molecule: CC(C)[C@H](NC(=O)[C@H](C)N)C(=O)N1CCC[C@H]1C(=O)NCc1ccc(O)cc1 [CJ-425]
Ki [1]: 1.34 µM

Molecule: C[C@H](N)C(=O)N[C@H](C(=O)N1CCC[C@H]1C(=O)NC(c1ccccc1)c1ccccc1)C1CCCCC1 [CJ-451]
EC50 [2]: 120 to 130 µM
EC50 (PC-3 cells [3]; PC-3, read-out: EC50 growth inhibition): 120 to 130 µM

Molecule: CC[C@H](N)C(=O)N[C@H](C(=O)N1CCC[C@H]1C(=O)NC(c1ccccc1)c1ccccc1)C1CCCCC1.Cl [CJ-445]
Ki [1]: 1.13 µM
apoptosis over control cells (PC-3 cells [4]; 5 μM compound + 25 μM CDDP, 42 hours): about 30%
apoptosis over control cells (PC-3 cells [4]; [13]): about 35%
sensitizing PC-3 cells to CDDP-induced apoptosis, compared with Smac8-C (PC-3 cells [4]; 10 μM compound vs 100 μM Smac8-C): as potent as 100 μM Smac8-C
EC50 ([2]; 5 days, MTT): 120 to 130 µM
EC50 (PC-3 cells [3]; [12]): 120 to 130 µM

Molecule: CC(C)[C@H](NC(=O)[C@H](C)N)C(=O)N1CCC[C@H]1C(=O)NC(c1ccccc1)c1ccccc1 [Compound 11]
EC50 [2]: 120 to 130 µM

Molecule: Cc1ccc(CNC(=O)[C@@H]2CCCN2C(=O)[C@@H](NC(=O)[C@H](C)N)C(C)C)cc1 [CJ-409]
Ki [1]: 3.21 µM

Molecule: CC(C)[C@H](NC(=O)[C@H](C)N)C(=O)N1CCC[C@H]1C(=O)NCc1ccccc1Cl [CJ-421]
Ki [1]: 1.73 µM

Molecule: CC[C@H](N)C(=O)N[C@H](C(=O)N1CCC[C@H]1C(=O)NC(c1ccccc1)c1ccccc1)c1ccccc1 [CJ-444]
Ki [1]: 13.5 µM
EC50 ([2]; 5 days, MTT): 120 to 130 µM
EC50 (PC-3 cells [3]; [12]): 120 to 130 µM

Molecule: CCNC(=O)[C@@H]1CCCN1C(=O)[C@@H](NC(=O)[C@H](C)N)C(C)C [CJ-418] (H-Ala-Val-Pro-NHEt)
Ki [1]: 55.3 µM

Molecule: AbuRPFK-FAM, termed SM5F (fluorescently labeled mutated 5-mer Smac peptide)
fold higher binding affinity than S9F [6]: 10 fold
ratio of the Kd values between SM5F and S9F [6]: 7.2 fold
percent of tracer saturated [7]: 60%
maximum binding [8]: 276 mP

Molecule: [NH2][Pt]([NH2])([Cl])[Cl] [CDDP, cisplatin, reference compound]
apoptosis as compared to control cells (PC-3 cells [4]; 25 μM CDDP alone, 42 hours): 12-15%
apoptosis as compared to control cells ([9]; 25 μM CDDP alone): about 30%
apoptosis as compared to control cells ([9]; 50 μM CDDP alone): about 45%

Molecule: AVPIAQKS [Smac-8, reference compound]
potentiation of the activity of CDDP in inducing apoptosis (PC-3 cells [4]; negative controls with CDDP): unable to potentiate the activity of CDDP

Molecule: Cc1cccc(CNC(=O)[C@@H]2CCCN2C(=O)[C@@H](NC(=O)[C@H](C)N)C(C)C)c1 [CJ-410]
Ki [1]: 1.19 µM

Molecule: COc1ccc(CNC(=O)[C@@H]2CCCN2C(=O)[C@@H](NC(=O)[C@H](C)N)C(C)C)cc1 [CJ-412]
Ki [1]: 11.7 µM

Molecule: CC(C)[C@H](NC(=O)[C@H](C)N)C(=O)N1CCC[C@H]1C(=O)NCCc1c[nH]c2ccccc12 [CJ-376]
Ki [1]: 3.99 µM

Molecule: CC(C)[C@H](NC(=O)[C@H](C)N)C(=O)N1CCC[C@H]1C(=O)NCc1ccc(Cl)cc1 [CJ-419]
Ki [1]: 0.97 µM

Molecule: CC(C)[C@H](NC(=O)[C@H](C)N)C(=O)N1CC[C@H]1C(=O)NC(c1ccccc1)c1ccccc1 [CJ-469]
Ki [1]: 0.78 µM

Molecule: CC(C)[C@H](NC(=O)[C@H](C)N)C(=O)N1CCC[C@H]1C(=O)NCc1cccc(Cl)c1 [CJ-420]
Ki [1]: 1.42 µM

Molecule: COc1cccc(CNC(=O)[C@@H]2CCCN2C(=O)[C@@H](NC(=O)[C@H](C)N)C(C)C)c1 [CJ-413]
Ki [1]: 2.92 µM

Molecule: COc1ccccc1CNC(=O)[C@@H]1CCCN1C(=O)[C@@H](NC(=O)[C@H](C)N)C(C)C [CJ-414]
Ki [1]: 3.88 µM

Molecule: CC[C@H](N)C(=O)N[C@H](C(=O)N1CCC[C@H]1C(=O)NC(c1ccccc1)c1ccccc1)C(C)C [Compound 16]
apoptosis over control cells (PC-3 cells [4]; [13]): 29.3%±1.9%
apoptosis over control cells (PC-3 cells [4]; 25 μM compound + 25 μM CDDP, 42 hours): 35.8%±0.4%
apoptosis induction by compound alone (PC-3 cells [4]; alone, 42 hours, SH-97 up to 50 μM): did not induce significantly more apoptosis
EC50 [2]: 120 to 130 µM
radiosensitization compared with Smac8-C (PC-3 cells [11]; 10 μM SH-97 vs 100 μM Smac8-C, 6 and 8 Gy): more effective than 100 μM of the cell-permeable Smac peptide Smac8-C
reduction of colony formation as compared to radiation alone (PC-3 cells [11]; 6 Gy, 10 μM compound): more than 10 fold
reduction of colony formation as compared to radiation alone (PC-3 cells [11]; 6 Gy, 25 μM compound): more than 10 fold
reduction of colony formation as compared to radiation alone (PC-3 cells [11]; 8 Gy, 10 μM compound): 40 fold
reduction of colony formation as compared to radiation alone (PC-3 cells [11]; 8 Gy, 25 μM compound): 50 fold
effect on activity of X-ray radiation (PC-3 cells [11]; 10 and 25 μM SH-97, 100 μM Smac8-C): significantly increased the activity of the radiation
effect on colony formation by compound itself (PC-3 cells [11]; without radiation, 10 days): no significant effect
apoptosis over control cells ([9]; 10 μM compound + 25 μM CDDP): about 50%
apoptosis over control cells ([9]; 10 μM compound + 50 μM CDDP): ~90%

Molecule: C[C@H](N)C(=O)N[C@H](C(=O)N1CCC[C@@H]1C(=O)NC(c1ccccc1)c1ccccc1)C1CC1 [CJ-464-2]
Ki [1]: 3.54 µM

Molecule: CNC(=O)[C@@H]1CCCN1C(=O)[C@@H](NC(=O)[C@H](C)N)C(C)C [CJ-452] (H-Ala-Val-Pro-NHMe)
Ki [1]: 80.9 µM

Molecule: C[C@H](N)C(=O)N[C@H](C(=O)N1CCC[C@H]1C(=O)NC(c1ccccc1)c1ccccc1)C1CCCC1 [CJ-467]
Ki [1]: 0.37 µM

Molecule: Cc1ccccc1CNC(=O)[C@@H]1CCCN1C(=O)[C@@H](NC(=O)[C@H](C)N)C(C)C [CJ-411]
Ki [1]: 0.54 µM

Molecule: CCCNC(=O)[C@@H]1CCCN1C(=O)[C@@H](NC(=O)[C@H](C)N)C(C)C [CJ-453] (H-Ala-Val-Pro-NHPr)
Ki [1]: 49.2 µM

Now from value to molecule:

Ki [1]: 3.22 µM
Molecule: CC(C)[C@H](NC(=O)CN)C(=O)N1CCC[C@H]1CCCc1ccccc1 [SH-82]

Ki [1]: 25.7 µM
Molecule: CC(C)[C@H](NC(=O)[C@H](C)N)C(=O)N1CCC[C@H]1CNCc1ccccc1 [SH-80]

Ki [1]: 0.1 µM
Molecule: CC[C@H](N)C(=O)N[C@H](C(=O)N1CCC[C@H]1C(=O)N[C@@H](c1ccccc1)c1ccc(CCCOC)cc1)C(C)C [SH-103]

ratio of the IC50 values for SM5 and S9 [5]: 6.7 fold
Molecule: unlabeled mutated Smac 5-mer peptide (SM5), AbuRPFK

Ki [1]: 0.7 µM
Molecule: CC(C)[C@H](NC(=O)[C@H](C)N)C(=O)N1CCC[C@H]1C(=O)NCc1cccc2ccccc12 [CJ-489]

Ki [1]: 0.56 µM
Molecule: C[C@H](N)C(=O)N[C@@H](CC1CCCCC1)C(=O)N1CCC[C@H]1C(=O)NC(c1ccccc1)c1ccccc1 [CJ-473]

Ki [1]: > 200 µM
Molecule: CC(C)[C@H](NC(=O)[C@H](C)N)C(=O)N1CCC[C@@H]1CNCc1ccccc1 [SH-81]

Kd [10]: 18 nM and 17.9 nM
Molecule: CC[C@H](N)C(=O)N[C@@H](CCCNC(=N)N)C(=O)N1CCC[C@H]1C(=O)N[C@@H](Cc1ccccc1)C(=O)N[C@@H](CCCCNC(=O)c1ccc2c(c1)C1(OC2=O)c2ccc(O)cc2Oc2cc(O)ccc21)C(N)=O [SM5F, AbuRPFK-FAM] (H-[Abu]RPFK(6FAM)-NH2; N-terminus and C-terminus assumed)

Ki [1]: 3.1 µM
Molecule: CC[C@H](N)C(=O)N[C@H](C(=O)N1CCC[C@H]1C(=O)N[C@@H](Cc1ccccc1)c1ccccc1)C(C)C [SH-98]

Ki [1]: 41 µM
Molecule: CC(C)[C@H](NC(=O)[C@H](C)N)C(=O)N1CCC[C@H]1C(=O)NCc1c[nH]c2ccccc12 [CJ-488]

Ki [1]: 5.47 µM
Molecule: CC(C)[C@H](NC(=O)[C@H](C)N)C(=O)N1CCC[C@H]1COC(c1ccccc1)c1ccccc1 [SH-106]

Ki [1]: > 200 µM
Molecule: CC(C)[C@H](NC(=O)[C@H](C)N)C(=O)N1CCC[C@H]1CCc1ccccc1 [SH-64]
